Where a name gives a salt, the structure may show the parent alone.
Experiments:
[1] = system: LTB4 production in murine blood (LTA4H); experiment: LTB4 production by calcium ionophore-stimulated murine blood for LTA4H inhibitor activity; type: cell-based, CD-1 mice; conditions: Mus musculus; murine blood diluted 1 in 15, A23187 stimulated; single determination or average; mark after value = form tested: ′ free base, ″ hydrochloride, ^ formate; read-out: IC50
How it was run: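 LTB4 was measured by ELISA in supernatants after calcium ionophore A23187 stimulation (final 7 μg/mL, 30 min, 37° C) of CD-1 mouse blood collected on heparin. Compound was preincubated with the blood for 15 min beforehand. Values come from one determination or average several.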

[2] = biological target: T1, recombinant human LTA4 hydrolase (rhLTA4H) (Homo sapiens, UniProt P09960); experiment: Recombinant human LTA4 hydrolase assay for LTA4 hydrolase inhibitor activity; type: biochemical; conditions: rhLTA4H, LTB4 by immunoassay; single determination or average of two or more; mark after value = form tested: ′ free base, ″ hydrochloride, ^ formate; read-out: IC50
T1 construct: made in house; host or cells: Spodoptera frugiperda (Sf-9) cells, baculovirus (pFastBac1)
T1 sequence (P09960 1-611): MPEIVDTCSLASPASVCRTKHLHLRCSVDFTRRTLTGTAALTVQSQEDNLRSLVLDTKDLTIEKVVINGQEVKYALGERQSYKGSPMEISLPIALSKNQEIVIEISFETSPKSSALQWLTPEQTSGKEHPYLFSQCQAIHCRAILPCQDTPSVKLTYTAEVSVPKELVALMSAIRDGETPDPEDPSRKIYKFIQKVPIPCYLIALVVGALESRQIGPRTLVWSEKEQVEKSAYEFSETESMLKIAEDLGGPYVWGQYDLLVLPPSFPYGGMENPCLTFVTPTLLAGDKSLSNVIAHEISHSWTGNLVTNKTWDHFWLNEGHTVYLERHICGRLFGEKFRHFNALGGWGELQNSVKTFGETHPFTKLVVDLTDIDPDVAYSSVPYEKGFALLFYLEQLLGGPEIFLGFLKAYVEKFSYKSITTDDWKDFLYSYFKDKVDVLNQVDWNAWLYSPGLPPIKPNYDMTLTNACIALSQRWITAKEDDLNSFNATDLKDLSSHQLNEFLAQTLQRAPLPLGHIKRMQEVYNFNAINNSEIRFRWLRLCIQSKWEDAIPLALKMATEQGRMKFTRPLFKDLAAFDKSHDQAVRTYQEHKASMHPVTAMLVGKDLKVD
How it was run: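 LTB4 formation, measured by enzyme immunoassay, was the read-out. The enzyme, recombinant human LTA4H expressed in Sf-9 insect cells (10 ng per reaction), was exposed to compound for 10 min at room temperature before hydrolysed-ester LTA4 substrate was added for 30 min. Enzyme-free negatives were included.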

SMILES | IC50 [1] [nM] | IC50 [2] [nM]
NC(=O)N[C@@H]1C[C@H]2CC[C@@H](C1)N2Cc1coc2cc(Oc3nc4ncccc4s3)ccc12 [Example 207, meso-exo-{8-[6-(Thiazolo[4,5-b]pyridin-2-yloxy)-benzofuran-3-ylmethyl]-8-aza-bicyclo[3.2.1]oct-3-yl}-urea] | 160 | 1
NC(=O)N1C[C@H]2CC[C@@H](C1)N2Cc1coc2cc(Oc3nc4ncccc4s3)ccc12 [Example 210, meso-8-[6-(Thiazolo[4,5-b]pyridin-2-yloxy)-benzofuran-3-ylmethyl]-3,8-diaza-bicyclo[3.2.1]octane-3-carboxylic acid amide] | 34 | 5
c1cnc2nc(Oc3ccc4c(CN5CCCCC5)coc4c3)sc2c1 [Example 212, 2-(3-Piperidin-1-ylmethyl-benzofuran-6-yloxy)-thiazolo[4,5-b]pyridine] | 19 | 4
c1cnc(OC2CCN(Cc3coc4cc(Oc5nc6ncccc6s5)ccc34)CC2)nc1 [Example 217, 2-{3-[4-(Pyrimidin-2-yloxy)-piperidin-1-ylmethyl]-benzofuran-6-yloxy}-thiazolo[4,5-b]pyridine] | 36 | 4
CCN(CC)Cc1coc2cc(Oc3nc4ncccc4s3)ccc12 [Example 219, Diethyl-[6-(thiazolo[4,5-b]pyridin-2-yloxy)-benzofuran-3-ylmethyl]-amine] | 20 | 2
c1cnc2nc(Oc3ccc4c(CN5CCC(c6ccncc6)CC5)coc4c3)sc2c1 [Example 220, 1-[6-(Thiazolo[4,5-b]pyridin-2-yloxy)-benzofuran-3-ylmethyl]-1,2,3,4,5,6-hexahydro-[4,4′]bipyridinyl] | 12 | 5
CCOC(=O)C1CCN(Cc2coc3cc(Oc4nc5ncccc5s4)ccc23)CC1 [Example 224, 1-[6-(Thiazolo[4,5-b]pyridin-2-yloxy)-benzofuran-3-ylmethyl]-piperidine-4-carboxylic acid ethyl ester] | 366 | 2
NC(=O)N1CCC(N(Cc2coc3cc(Oc4nc5ncccc5s4)ccc23)C2CC2)CC1 [Example 242, 4-{Cyclopropyl-[6-(thiazolo[4,5-b]pyridin-2-yloxy)-benzofuran-3-ylmethyl]-amino}-piperidine-1-carboxylic acid amide] | 68 | 32
CS(=O)(=O)N1CCN(Cc2coc3cc(Oc4nc5ncccc5s4)ccc23)CC1 [Example 243, 2-[3-(4-Methanesulfonyl-piperazin-1-ylmethyl)-benzofuran-6-yloxy]-thiazolo[4,5-b]pyridine] | 80 | 6
CS(=O)(=O)N1C[C@@H]2CC[C@H]1CN2Cc1coc2cc(Oc3nc4ncccc4s3)ccc12 [Example 245, (1S,4S)-2-Methanesulfonyl-5-[6-(thiazolo[4,5-b]pyridin-2-yloxy)-benzofuran-3-ylmethyl]-2,5-diaza-bicyclo[2.2.2]octane] | 32 | 4
CS(=O)(=O)N1CCC(N(Cc2coc3cc(Oc4nc5ncccc5s4)ccc23)C2CC2)CC1 [Example 246, Cyclopropyl-(1-methanesulfonyl-piperidin-4-yl)-[6-(thiazolo[4,5-b]pyridin-2-yloxy)-benzofuran-3-ylmethyl]-amine] | 90 | 14
CS(=O)(=O)N1CCCN(Cc2coc3cc(Oc4nc5ncccc5s4)ccc23)CC1 [Example 247, 2-[3-(4-Methanesulfonyl-[1,4]diazepan-1-ylmethyl)-benzofuran-6-yloxy]-thiazolo[4,5-b]pyridine] | 24 | 9
O=C(O)C1CCN(Cc2coc3cc(Oc4nc5ncccc5s4)ccc23)CC1 [Example 249, 1-[6-(Thiazolo[4,5-b]pyridin-2-yloxy)-benzofuran-3-ylmethyl]-piperidine-4-carboxylic acid] | 54 | 12
CC(=O)NC1CCN(Cc2coc3cc(Oc4nc5ncc(C)cc5s4)ccc23)CC1 [Example 251, N-{1-[6-(6-Methyl-thiazolo[4,5-b]pyridin-2-yloxy)-benzofuran-3-ylmethyl]-piperidin-4-yl}-acetamide formate] | 220 | 27
CC(=O)NC1CCN(Cc2coc3cc(Oc4nc5nccc(C)c5s4)ccc23)CC1 [Example 252, N-{1-[6-(7-Methyl-thiazolo[4,5-b]pyridin-2-yloxy)-benzofuran-3-ylmethyl]-piperidin-4-yl}-acetamide formate] | 48 | 24
CC(=O)NC1CCN(Cc2coc3cc(Oc4nc5nccnc5s4)ccc23)CC1 [Example 253, N-{1-[6-(Thiazolo[4,5-b]pyrazin-2-yloxy)-benzofuran-3-ylmethyl]-piperidin-4-yl}-acetamide formate] | 91 | 39
CC(=O)NC1CCN(Cc2coc3cc(Oc4nc5ncc(F)cc5s4)ccc23)CC1 [Example 255, N-{1-[6-(6-Fluoro-thiazolo[4,5-b]pyridin-2-yloxy)-benzofuran-3-ylmethyl]-piperidin-4-yl}-acetamide formate] | 72 | 31
CC(=O)N1CCN(Cc2cc3cc(Oc4nc5ncccc5s4)ccc3o2)CC1 [Example 259, 1-{4-[5-(Thiazolo[4,5-b]pyridin-2-yloxy)-benzofuran-2-ylmethyl]-piperazin-1-yl}ethanone formate] | 74 | 5
c1cnc2nc(Oc3ccc4c(CN5CCC6CCCCC6C5)coc4c3)sc2c1 (stereo not shown) [Example 266, 2-[6-(Thiazolo[4,5-b]pyridin-2-yloxy)-benzofuran-3-ylmethyl]-decahydro-isoquinoline formate] | 100 | 2
c1cnc2nc(Oc3ccc4c(CN5CCCC6CCCCC65)coc4c3)sc2c1 (stereo not shown) [Example 267, 1-[6-(Thiazolo[4,5-b]pyridin-2-yloxy)-benzofuran-3-ylmethyl]-decahydro-quinoline formate] | 44 | 9
OC1CCN(Cc2coc3cc(Oc4nc5ncccc5s4)ccc23)CC1 [Example 268, 1-[6-(Thiazolo[4,5-b]pyridin-2-yloxy)-benzofuran-3-ylmethyl]-piperidin-4-ol] | 150 | 8
FC1CCN(Cc2coc3cc(Oc4nc5ncccc5s4)ccc23)CC1 [Example 270, 2-[3-(4-Fluoro-piperidin-1-ylmethyl)-benzofuran-6-yloxy]-thiazolo[4,5-b]pyridine formate] | 100 | 26
COC1CCN(Cc2coc3cc(Oc4nc5ncccc5s4)ccc23)CC1 [Example 271, 2-[3-(4-Methoxy-piperidin-1-ylmethyl)-benzofuran-6-yloxy]-thiazolo[4,5-b]pyridine formate] | 79 | 5
O=C1CCCCN1C1CCN(Cc2coc3cc(Oc4nc5ncccc5s4)ccc23)CC1 [Example 272, 1′-[6-(Thiazolo[4,5-b]pyridin-2-yloxy)-benzofuran-3-ylmethyl]-[1,4′]bipiperidinyl-2-one formate] | 15 | 5
OC1(c2ccccc2)CCN(Cc2coc3cc(Oc4nc5ncccc5s4)ccc23)CC1 [Example 275, 4-Phenyl-1-[6-(thiazolo[4,5-b]pyridin-2-yloxy)-benzofuran-3-ylmethyl]-piperidin-4-ol] | 34 | 2
O=C(C1CC1)N1CCN(Cc2coc3cc(Oc4nc5ncccc5s4)ccc23)CC1 [Example 276, Cyclopropyl-{4-[6-(thiazolo[4,5-b]pyridin-2-yloxy)-benzofuran-3-ylmethyl]-piperazin-1-yl}-methanone formate] | 77 | 3
c1cnc2nc(Oc3ccc4c(CN5CCN(C6CC6)CC5)coc4c3)sc2c1 [Example 277, 2-[3-(4-Cyclopropyl-piperazin-1-ylmethyl)-benzofuran-6-yloxy]-thiazolo[4,5-b]pyridine] | 130 | 12
c1ccc(CC2CCN(Cc3coc4cc(Oc5nc6ncccc6s5)ccc34)CC2)cc1 [Example 279, 2-[3-(4-Benzyl-piperidin-1-ylmethyl)-benzofuran-6-yloxy]-thiazolo[4,5-b]pyridine] | 130 | 44
c1ccc(C2CCN(Cc3coc4cc(Oc5nc6ncccc6s5)ccc34)CC2)cc1 [Example 280, 2-[3-(4-Phenyl-piperidin-1-ylmethyl)-benzofuran-6-yloxy]-thiazolo[4,5-b]pyridine formate] | 130 | 10

— patent publication US8399465B2, “Compounds with two fused bicyclic heteroaryl moieties as modulators of leukotriene A4 hydrolase” (Janssen Pharmaceutica NV, priority 2009, dated 2013)
